Measured values taken from patent publication US7786108B2, “Compounds and method for treating dyslipidemia” (Eli Lilly and Company, priority 2004, dated 2010).

Tests used:
[1] = test system: transgenic mice that express both human CETP and human apolipoprotein A-1; experiment: In vivo assay of plasma lipids: elevation of HDL cholesterol; settings: Mus musculus; single oral dose 30 mg/kg; HDL cholesterol in serum at 8 hr after administration; relative to a control; read-out: % HDL cholesterol increase
Excerpt: Additional serum lipids can be analyzed by enzymatic methods.

SMILES | melting point | change in vivo at 30 mg/kg [1] [%]
Cc1cc2c(cc1C(F)(F)F)N(CCO)CCC[C@@H]2N(Cc1cc(C(F)(F)F)cc(C(F)(F)F)c1)c1nnn(C)n1 [Example 33, (S)-2-{5-[(3,5-Bis-trifluoromethyl-benzyl)-(2-methyl-2H-tetrazol-5-yl)-amino]-7-methyl-8-trifluoromethyl-2,3,4,5-tetrahydro-benzo[b]azepin-1-yl}-ethanol] |  | 354
Cc1cc2c(cc1C(F)(F)F)N(CC1CC1)CCC[C@@H]2N(Cc1cc(Cl)cc(C(F)(F)F)c1)c1nnn(C)n1 [Example 196, (S)-(3-Chloro-5-trifluoromethyl-benzyl)-(1-cyclopropylmethyl-7-methyl-8-trifluoromethyl-2,3,4,5-tetrahydro-1H-benzo[b]azepin-5-yl)-(2-methyl-2H-tetrazol-5-yl)-amine] |  | 126
Cn1nnc(N(Cc2cc(C(F)(F)F)cc(C(F)(F)F)c2)[C@H]2CCCN(CC3CCCC3)c3cc4c(cc32)OC(F)(F)O4)n1 [Example 178, (S)-(3,5-Bis-trifluoromethyl-benzyl)-(5-cyclopentylmethyl-2,2-difluoro-6,7,8,9-tetrahydro-5H-1,3-dioxa-5-aza-cyclohepta[f]inden-9-yl)-(2-methyl-2H-tetrazol-5-yl)-amine] |  | 128

More lines, main results first:

melting point | SMILES | change in vivo at 30 mg/kg [1] [%]
62 to 65 °C (dec.) | COC(=O)c1cccc(CN2CCC[C@H](N(Cc3cc(C(F)(F)F)cc(C(F)(F)F)c3)c3nnn(C)n3)c3cc(C)c(C(F)(F)F)cc32)c1 [Example 90, (S)-3-{5-[(3,5-Bis-trifluoromethyl-benzyl)-(2-methyl-2H-tetrazol-5-yl)-amino]-7-methyl-8-trifluoromethyl-2,3,4,5-tetrahydro-benzo[b]azepin-1-ylmethyl}-benzoic acid methyl ester] | 
71 to 74 °C (dec.) | COC(=O)c1ccc(CN2CCC[C@H](N(Cc3cc(C(F)(F)F)cc(C(F)(F)F)c3)c3nnn(C)n3)c3cc(C)c(C(F)(F)F)cc32)cc1 [Example 88, (S)-4-{5-[(3,5-Bis-trifluoromethyl-benzyl)-(2-methyl-2H-tetrazol-5-yl)-amino]-7-methyl-8-trifluoromethyl-2,3,4,5-tetrahydro-benzo[b]azepin-1-ylmethyl}-benzoic acid methyl ester] | 
101 to 105 °C | Cc1cc2c(cc1C(F)(F)F)N(c1ccc(C(=O)O)cc1)CCC[C@@H]2N(Cc1cc(C(F)(F)F)cc(C(F)(F)F)c1)c1nnn(C)n1 [Example 92, (S)-4-{5-[(3,5-Bis-trifluoromethyl-benzyl)-(2-methyl-2H-tetrazol-5-yl)-amino]-7-methyl-8-trifluoromethyl-2,3,4,5-tetrahydro-benzo[b]azepin-1-yl}-benzoic acid] | 
95 to 98 °C | Cc1cc2c(cc1C(F)(F)F)N(Cc1ccc(C(=O)O)cc1)CCC[C@@H]2N(Cc1cc(C(F)(F)F)cc(C(F)(F)F)c1)c1nnn(C)n1 [Example 89, (S)-4-{5-[(3,5-Bis-trifluoromethyl-benzyl)-(2-methyl-2H-tetrazol-5-yl)-amino]-7-methyl-8-trifluoromethyl-2,3,4,5-tetrahydro-benzo[b]azepin-1-ylmethyl}-benzoic acid] | 186
83 to 86 °C | Cc1cc2c(cc1C(F)(F)F)N(Cc1cccc(C(=O)O)c1)CCC[C@@H]2N(Cc1cc(C(F)(F)F)cc(C(F)(F)F)c1)c1nnn(C)n1 [Example 91, (S)-3-{5-[(3,5-Bis-trifluoromethyl-benzyl)-(2-methyl-2H-tetrazol-5-yl)-amino]-7-methyl-8-trifluoromethyl-2,3,4,5-tetrahydro-benzo[b]azepin-1-ylmethyl}-benzoic acid] | 
